Here are results for 1 compound from the NIST ThermoML archive (doi:10.1016/j.fluid.2010.01.025).

± gives the expanded uncertainty stated by the source.

A short description of series [1]: Molar enthalpy of transition or fusion. Particulars: Crystal; DSC.
The conditions of series [2]: Crystal; DTA.

Turning to `CCCC[n+]1cccc(C)c1.Cc1ccc(S(=O)(=O)[O-])cc1` [1-butyl-3-methylpyridinium 4-methylbenzenesulfonate], the “Molar enthalpy of transition or fusion” value in series [1] worked out at 2.71 ± 0.0837 kcal/mol. Besides, in series [2], the Normal melting temperature turned out to be 42.7 ± 0.4 °C.
